Measurements: ChEMBL document CHEMBL4257227, “Deubiquitinase inhibitors and methods for use of the same” (2016)
Active and inactive are the calls of the source. The calls are words filed in the database; no cut-off is given here.

How the values were obtained:
[1] = system: MM1.S; assay: Induction of apoptosis in human MM1S cells at 0.3125 to 5 uM incubated for 24 hrs by annexin V staining based flow cytometry; format: functional, cell-based
[2] = molecular target: Ubiquitin carboxyl-terminal hydrolase 9X (Homo sapiens) (UniProt Q93008); assay: Inhibition of Usp9x in primary tumor cells from patient with plasma cell leukemia assessed as reduction in MCL-1 protein levels at 5 uM incubated for 30 to 240 mins by SDS-PAGE and immunoblotting; format: cell-based
Sequence of Ubiquitin carboxyl-terminal hydrolase 9X (Homo sapiens) (Q93008 whole entry): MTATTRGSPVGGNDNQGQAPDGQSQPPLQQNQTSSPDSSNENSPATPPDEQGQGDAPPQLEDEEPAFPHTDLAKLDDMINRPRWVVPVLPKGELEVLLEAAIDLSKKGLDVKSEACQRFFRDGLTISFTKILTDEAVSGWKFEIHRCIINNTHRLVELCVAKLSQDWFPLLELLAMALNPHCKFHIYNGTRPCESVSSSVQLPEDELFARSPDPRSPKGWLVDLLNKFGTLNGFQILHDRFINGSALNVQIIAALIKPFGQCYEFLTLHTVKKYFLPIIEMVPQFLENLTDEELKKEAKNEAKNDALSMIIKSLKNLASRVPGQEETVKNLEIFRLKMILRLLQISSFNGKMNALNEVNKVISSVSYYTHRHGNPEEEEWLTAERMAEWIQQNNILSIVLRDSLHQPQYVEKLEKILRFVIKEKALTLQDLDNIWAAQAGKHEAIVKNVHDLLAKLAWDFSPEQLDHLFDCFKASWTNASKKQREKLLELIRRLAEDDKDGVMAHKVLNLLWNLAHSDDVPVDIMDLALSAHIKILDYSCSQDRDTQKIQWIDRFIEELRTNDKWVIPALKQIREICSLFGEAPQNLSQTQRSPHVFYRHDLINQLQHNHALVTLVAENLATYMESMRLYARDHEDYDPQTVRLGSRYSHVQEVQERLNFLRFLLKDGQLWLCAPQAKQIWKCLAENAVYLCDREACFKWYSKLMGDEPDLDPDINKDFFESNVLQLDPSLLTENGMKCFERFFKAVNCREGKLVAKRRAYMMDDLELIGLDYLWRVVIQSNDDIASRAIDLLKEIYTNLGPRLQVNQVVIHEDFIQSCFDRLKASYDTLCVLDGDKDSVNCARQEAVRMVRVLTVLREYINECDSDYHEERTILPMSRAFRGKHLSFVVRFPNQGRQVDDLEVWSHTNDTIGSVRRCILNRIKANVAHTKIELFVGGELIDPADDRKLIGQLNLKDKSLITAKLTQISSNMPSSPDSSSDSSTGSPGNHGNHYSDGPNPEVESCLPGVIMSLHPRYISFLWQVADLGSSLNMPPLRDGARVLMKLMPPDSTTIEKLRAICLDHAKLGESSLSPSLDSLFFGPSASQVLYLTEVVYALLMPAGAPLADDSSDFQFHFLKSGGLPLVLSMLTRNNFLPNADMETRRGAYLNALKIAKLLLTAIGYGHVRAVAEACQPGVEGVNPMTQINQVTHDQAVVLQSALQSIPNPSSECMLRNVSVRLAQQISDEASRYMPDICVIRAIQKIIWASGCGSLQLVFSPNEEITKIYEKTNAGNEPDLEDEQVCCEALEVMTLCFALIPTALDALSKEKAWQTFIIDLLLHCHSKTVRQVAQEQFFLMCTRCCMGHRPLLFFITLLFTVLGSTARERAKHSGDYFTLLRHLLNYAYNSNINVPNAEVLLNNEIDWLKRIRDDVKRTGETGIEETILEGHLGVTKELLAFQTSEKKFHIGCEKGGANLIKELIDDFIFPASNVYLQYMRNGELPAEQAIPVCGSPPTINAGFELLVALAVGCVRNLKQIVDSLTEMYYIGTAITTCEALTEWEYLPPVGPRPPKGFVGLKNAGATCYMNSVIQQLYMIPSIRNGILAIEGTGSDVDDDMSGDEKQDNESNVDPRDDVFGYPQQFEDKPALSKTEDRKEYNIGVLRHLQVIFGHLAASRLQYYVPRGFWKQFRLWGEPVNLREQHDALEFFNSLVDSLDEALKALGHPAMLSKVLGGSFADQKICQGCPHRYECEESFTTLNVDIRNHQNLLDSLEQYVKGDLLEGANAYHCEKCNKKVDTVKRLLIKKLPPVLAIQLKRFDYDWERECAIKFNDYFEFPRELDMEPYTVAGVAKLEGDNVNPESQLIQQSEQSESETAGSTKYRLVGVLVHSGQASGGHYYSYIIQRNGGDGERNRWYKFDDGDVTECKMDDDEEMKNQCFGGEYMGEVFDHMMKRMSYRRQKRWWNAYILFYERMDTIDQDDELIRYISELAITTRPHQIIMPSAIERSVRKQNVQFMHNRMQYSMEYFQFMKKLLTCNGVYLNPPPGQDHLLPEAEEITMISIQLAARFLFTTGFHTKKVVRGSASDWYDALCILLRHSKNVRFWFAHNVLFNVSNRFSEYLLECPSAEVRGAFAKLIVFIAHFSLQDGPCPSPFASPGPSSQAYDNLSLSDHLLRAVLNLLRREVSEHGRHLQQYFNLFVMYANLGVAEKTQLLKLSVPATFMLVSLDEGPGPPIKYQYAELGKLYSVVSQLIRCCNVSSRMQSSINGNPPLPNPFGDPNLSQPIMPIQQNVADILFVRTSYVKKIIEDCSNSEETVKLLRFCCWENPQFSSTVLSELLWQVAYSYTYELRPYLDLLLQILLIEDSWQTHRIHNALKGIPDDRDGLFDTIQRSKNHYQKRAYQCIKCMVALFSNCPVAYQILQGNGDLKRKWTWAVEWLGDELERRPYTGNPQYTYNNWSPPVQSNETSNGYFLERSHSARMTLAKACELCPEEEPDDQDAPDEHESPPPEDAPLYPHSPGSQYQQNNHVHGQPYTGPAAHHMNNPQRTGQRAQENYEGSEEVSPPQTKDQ

[3] = system: Mus musculus; assay: Toxicity in human A375 cells xenografted NOD/SCID/gamma-2 knockout mouse assessed as effect on mobility at 7.5 to 15 mg/kg, ip once per day for 8 days; format: functional, organism-based
[4] = system: Mus musculus; assay: Toxicity in human MM1S cells xenografted NOD/SCID/gamma-2 knockout mouse assessed effect on body weight at 15 to 20 mg/kg, ip once per day for 14 days; format: functional, organism-based
[5] = molecular target: T1, Ubiquitin carboxyl-terminal hydrolase 5 (Homo sapiens) (UniProt P45974); assay: Inhibition of USP5 in Vemurafenib sensitive human A375 cells
T1 sequence (whole entry): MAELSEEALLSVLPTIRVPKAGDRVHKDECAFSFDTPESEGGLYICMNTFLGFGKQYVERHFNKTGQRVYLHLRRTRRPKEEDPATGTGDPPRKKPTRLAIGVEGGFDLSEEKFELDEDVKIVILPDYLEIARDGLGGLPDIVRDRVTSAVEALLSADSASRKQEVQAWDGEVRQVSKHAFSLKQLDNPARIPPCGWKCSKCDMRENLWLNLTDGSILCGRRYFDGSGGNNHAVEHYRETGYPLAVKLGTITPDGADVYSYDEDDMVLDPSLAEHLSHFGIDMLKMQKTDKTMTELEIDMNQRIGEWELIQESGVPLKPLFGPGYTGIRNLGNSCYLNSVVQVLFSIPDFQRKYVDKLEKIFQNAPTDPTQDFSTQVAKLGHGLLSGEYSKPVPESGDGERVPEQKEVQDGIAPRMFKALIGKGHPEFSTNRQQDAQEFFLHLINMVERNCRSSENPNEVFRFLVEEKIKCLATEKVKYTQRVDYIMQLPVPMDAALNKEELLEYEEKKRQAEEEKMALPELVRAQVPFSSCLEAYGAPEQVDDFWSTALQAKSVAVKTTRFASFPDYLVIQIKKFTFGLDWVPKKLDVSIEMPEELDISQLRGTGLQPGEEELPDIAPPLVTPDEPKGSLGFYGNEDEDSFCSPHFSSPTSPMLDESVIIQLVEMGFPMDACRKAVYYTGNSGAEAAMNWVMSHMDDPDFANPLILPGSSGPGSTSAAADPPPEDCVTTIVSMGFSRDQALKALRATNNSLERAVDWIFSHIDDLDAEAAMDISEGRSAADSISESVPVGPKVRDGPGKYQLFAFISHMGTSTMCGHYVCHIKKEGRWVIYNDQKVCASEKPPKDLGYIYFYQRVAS

[6] = molecular target: Ubiquitin carboxyl-terminal hydrolase 9X (Homo sapiens) (UniProt Q93008); assay: Inhibition of USP9x in Vemurafenib sensitive human A375 cells assessed as STAT3 phosphorylation
[7] = Plasma concentration in Balb/c mouse at 10 mg/kg, iv after 4 hrs by LC-MS analysis; format: ADME, organism-based
[8] = molecular target: Ubiquitin carboxyl-terminal hydrolase 9X (Homo sapiens) (UniProt Q93008); assay: Inhibition of Usp9x in human A375 cells; format: cell-based
[9] = molecular target: T1, Ubiquitin carboxyl-terminal hydrolase 5 (Homo sapiens); assay: Inhibition of USP5 in Vemurafenib resistant human A375 cells assessed as reduction in ERK phosphorylation
[10] = molecular target: T1, Ubiquitin carboxyl-terminal hydrolase 5 (Homo sapiens); assay: Inhibition of USP5 in Vemurafenib […] human A375R cells assessed as reduction in ERK phosphorylation
[11] = molecular target: T1, Ubiquitin carboxyl-terminal hydrolase 5 (Homo sapiens); assay: Inhibition of USP5 in Vemurafenib […] human A375R cells assessed as increase in NOXA protein level
[12] = molecular target: T1, Ubiquitin carboxyl-terminal hydrolase 5 (Homo sapiens); assay: Inhibition of USP5 in Vemurafenib sensitive human A375 cells assessed as reduction in ERK phosphorylation
[13] = system: A-375; assay: Antitumor activity against human A375 cells xenografted in NOD/SCID/gamma-2 knockout mouse assessed as inhibition of tumor growth at 7.5 to 15 mg/kg, ip once per day for 8 days followed by drug cessation and measured 10 days after drug cessation; format: functional, organism-based
[14] = system: A-375; assay: Antitumor activity against human A375 cells xenografted in NOD/SCID/gamma-2 knockout mouse assessed as inhibition of tumor growth at 15 mg/kg, ip once per day for 8 days; format: functional, organism-based
[15] = system: A-375; assay: Induction of p53 protein expression in Vemurafenib sensitive human A375 cells; format: functional, cell-based
[16] = system: A375/R; assay: Induction of apoptosis in human A375R cells assessed as induction of Bid cleavage; format: functional, cell-based
[17] = system: Mus musculus; assay: Toxicity in human A375 cells xenografted NOD/SCID/gamma-2 knockout mouse assessed effect on body weight at 15 mg/kg, ip once per day for 8 days; format: functional, organism-based
[18] = AUClast in Balb/c mouse at 10 mg/kg, iv by LC-MS analysis; format: ADME, organism-based; parameters: dose 10 mg/kg, route intravenous, time 0 - last; conditions: in vivo
[19] = system: MM1.S; assay: Antitumor activity against human MM1S cells xenografted in NOD/SCID/gamma-2 knockout mouse assessed as inhibition of tumor volume at 5 to 20 mg/kg, ip once per day for 11 days; format: functional, organism-based
[20] = Plasma concentration in Balb/c mouse at 30 mg/kg, po after 0.5 hrs by LC-MS analysis; format: ADME, organism-based
[21] = Plasma concentration in Balb/c mouse at 30 mg/kg, po after 2 hrs by LC-MS analysis; format: ADME, organism-based
[22] = system: A375/R; assay: Induction of apoptosis in human A375R cells assessed as induction of caspase-8 activation; format: functional, cell-based
[23] = system: Tulane virus; assay: Antiviral activity against Tulane virus infected in […] LLC-MK cells assessed as reduction in viral plaque forming units; format: functional, organism-based
[24] = system: Murine norovirus; assay: Antiviral activity against Murine norovirus infected in Balb/c bone marrow derived macrophages assessed as reduction in viral plaque forming units; format: functional, organism-based
[25] = molecular target: Ubiquitin carboxyl-terminal hydrolase 9X (Homo sapiens) (UniProt Q93008); assay: Inhibition of USP9x in Vemurafenib resistant human A375 cells
[26] = system: Murine norovirus; assay: Antiviral activity against Murine norovirus infected in Swiss Webster bone marrow derived macrophages assessed as reduction in viral plaque forming units; format: functional, organism-based
[27] = system: Mus musculus; assay: Toxicity in human MM1S cells xenografted NOD/SCID/gamma-2 knockout mouse assessed effect on body weight at 2.5 to 10 mg/kg, ip once per day for 14 days; format: functional, organism-based
[28] = AUClast in Balb/c mouse at 30 mg/kg, po by LC-MS analysis; format: ADME, organism-based; parameters: dose 30 mg/kg, route oral, time 0 - last; conditions: in vivo
[29] = system: A-375; assay: Antitumor activity against human A375 cells xenografted in NOD/SCID/gamma-2 knockout mouse assessed as inhibition of tumor growth at 7.5 mg/kg, ip once per day for 8 days; format: functional, organism-based
[30] = system: Mus musculus; assay: Inhibition of Usp9x in human MM1S cells xenografted in NOD/SCID/gamma-2 knockout mouse assessed as reduction in Mcl-1 protein levels at 15 mg/kg, ip once per day for 14 days; format: functional, organism-based
[31] = system: NCI-H929; assay: Induction of apoptosis in human NCI-H929 cells at 0.3125 to 5 uM incubated for 24 hrs by annexin V staining based flow cytometry; format: functional, cell-based
[32] = Plasma concentration in Balb/c mouse at 30 mg/kg, po after 4 hrs by LC-MS analysis; format: ADME, organism-based
[33] = molecular target: T1, Ubiquitin carboxyl-terminal hydrolase 5 (Homo sapiens); assay: Inhibition of USP5 in Vemurafenib […] human A375R cells assessed as reduction in STAT3 phosphorylation

- inhibition [2]: Active
- inhibition [5]: Active
- inhibition [6]: Active
- concentration at 4 h [7]: 126 to 289 ng/mL
- inhibition [8]: Active
- inhibition [9]: Active
- inhibition [10]: Active
- inhibition [11]: Active
- inhibition [12]: Active
- AUC(0-t) [18]: 3570 to 3730 ng·h/mL
- concentration at 0.5 h [20]: 60.8 to 78.7 ng/mL
- concentration at 2 h [21]: 35.8 to 59 ng/mL
- inhibition [25]: Active
- AUC(0-t) [28]: 291 to 349 ng·h/mL
- concentration at 4 h [32]: 44.5 to 57.1 ng/mL
- inhibition [33]: Active
SMILES: CCCC(NC(=O)/C(C#N)=C/c1nc(Cl)ccc1Cl)c1ccc(OCCN2CCOCC2)cc1 (stereo not drawn)
- Activity [1]: Active
- Activity [3]: Not toxic
- Activity [4]: Toxic
- TGI [13]: inactive
- TGI [14]: Active
- Activity [15]: inactive
- Activity [16]: Active
- Activity [17]: Not toxic
- Activity [19]: Active
- Activity [22]: Active
- Activity [23]: Active
- Activity [24]: Active
- Activity [26]: Active
- Activity [27]: Not toxic
- TGI [29]: Active
- inhibition [30]: Active
- Activity [31]: Active
